Results taken from patent US11479528B2, “Heat shock protein 90 inhibitors” (TAIPEI MEDICAL UNIVERSITY, priority 2017, dated 2022).
Read-outs that look alike come from different tables or passages of the source.

Assays:
prostate PC3 = experiment: Sulforhodamine B (SRB) assay, prostate PC3; format: cell-based; details: Homo sapiens, Table 1, 48 h
Experimental: (§1) Human cancer cells were purchased from the American Type Culture Collection (Manassas, Va., USA). These cell lines were cultured in RPMI 1640 medium or DMEM supplemented with 10% FBS (v/v) and pencillin (100 U/mL)/streptomycin (100 ug/mL)/amphotericin B (0.25 ug/mL). Cultures were maintained at 37° C. in a humidified atmosphere of 5% CO2/95% air.
(§2) Cells were seeded in 96-well plates in medium with 5% fetal bovine serum. After 24 h, cells were fixed with 10% trichloroacetic acid to represent cell population at the time of drug addition (T0). After additional incubation of DMSO or drugs for 48 h, cells were fixed with 10% trichloroacetic acid and sulforhodamine B at 0.4% (w/v) in 1% acetic acid was added to stain cells. Unbound sulforhodamine B was washed out by 1% acetic acid and sulforhodamine B-bound cells were solubilized with 10 mmol/L Trizma base. The absorbance was read at a wavelength of 515 nm. Using the following absorbance measurements, such as time zero (T0), control growth (C), and cell growth in the presence of the drug (Tx), the percentage growth was calculated at each of the compound concentrations levels. Percentage growth inhibition was calculated as […].

lung A549 = experiment: Sulforhodamine B (SRB) assay, lung A549; format: cell-based, human; details: Homo sapiens
Experimental: Human cancer cells were purchased from the American Type Culture Collection (Manassas, Va., USA).
Cells were seeded in 96-well plates in medium with 5% fetal bovine serum. […] Unbound sulforhodamine B was washed out by 1% acetic acid and sulforhodamine B-bound cells were solubilized with 10 mmol/L Trizma base. […] Using the following absorbance measurements, such as time zero (T0), control growth (C), and cell growth in the presence of the drug (Tx), the percentage growth was calculated at each of the compound concentrations levels. Percentage growth inhibition was calculated as […].

colorectal HCT116 = experiment: Sulforhodamine B (SRB) assay, colorectal HCT116; format: cell-based; details: Homo sapiens
Experimental: as §1, §2

[1] = system: human colon HCT116 xenograft; experiment: Human colon HCT116 xenograft model; details: 100 mg/kg, qd, po; n = 7-8
Experimental: An in vivo study was conducted to evaluate the efficacy of compounds of formula (I) in suppressing tumor growth in a human colon HCT116 xenograft model.

[2] = system: HSP90 client proteins, i.e., EGFR, Akt, CDK-4, and HSP70, in HCT-116 tumor cells; experiment: Western blot of HSP90 client proteins in HCT-116 tumor cells; format: cell-based, human; details: HCT-116 cells, 24 hours after treatment
Experimental: Western blot analysis was performed to detect cell apoptotic signaling activated by substituted aromatic compounds of formula (I). Cells were harvested by scraping with lysis buffer (1 mM EGTA, 1 mM EDTA, 150 mM NaCl, 1% Triton X-100, 2.5 mM sodium pyrophosphate, 1 mM PMSF, 1 mM Na3VO4, 1 ug/mL leupeptin, 1 ug/mL aprotinin, 5 mM NaF in 20 mM Tris-HCl buffer, pH 7.5). Cell lysates were centrifuged at 13,000 g for 30 min. Total protein was determined and equal amounts of protein were separated by SDS-PAGE and immunoblotted with specific antibodies. Proteins were visualized by enhanced chemiluminescence (Amersham, Buckinghamshire, UK).
Total cellular extracts were obtained 24 hours after treatment.

liver Hep3B = experiment: Sulforhodamine B (SRB) assay, liver Hep3B; format: cell-based; details: Homo sapiens
Experimental: as §1, §2

[3] = Pharmacokinetic profiles in rat; details: in vivo
Experimental: A pharmacokinetic study was conducted to evaluate the pharmacokinetic properties of compounds of formula (I).

[4] = Maximum tolerated dose and therapeutic index in vivo
HUVEC cells = experiment: Sulforhodamine B (SRB) assay, HUVEC; details: for GI50: Homo sapiens, HUVEC
Experimental: as §1, §2

HSP90 α protein = HSP90 α protein (Homo sapiens, UniProt P07900); experiment: HSP90 ATP-binding / fluorescence polarization competition assay (enzyme inhibition)
Experimental: To assess the inhibition of HSP90 activity within a cellular context, cells were treated with certain substituted aromatic compounds of formula (I) and the inhibition of HSP90 ATP-binding activity in cells was determined by using an ATP pull-down assay. Cells were treated with the compounds for 24 hours and then lysed in TNESV buffer (50 mM Tris, 2 mM EDTA, […], 1 mM activated sodium orthovanadate, 25 mM NaF, 1% Triton X-100 [pH 7.5]) for 30 min at 4° C. Lysates were spun for 30 min at 12000 rpm at 4° C. Protein (200 ug) was incubated with conditioned γ-ATP-polyacrylamide resin in incubation buffer (10 mM Tris-HCl, 50 mM KCl, 5 mM MgCl2, 20 mM Na2MoO4, 0.01% Nonidet P-40) overnight at 4° C., rotating. The resin was then washed four times with incubation buffer. Bound proteins were isolated by boiling with SDS buffer. For the competition studies, fluorescence polarization assays were performed under the following conditions: each 96-well plate contained 5 nM fluorescent GM (geldanamycin), 30 nM HSP90 α protein, and tested inhibitor in a final volume of 100 uL. For each assay, background wells (buffer only), tracer controls (free, fluorescent GMonly), and bound GM controls (fluorescent GM in the presence of HSP90) were included on each assay plate. The fraction of tracer bound to HSP90 was correlated to the mP value and plotted against log 10 values of competitor concentrations. The inhibitor concentration at which 50% of bound GM was displaced was obtained by fitting the data.

breast MDA-MB-231 = experiment: Sulforhodamine B (SRB) assay, breast MDA-MB-231; format: cell-based; details: Homo sapiens
Experimental: as §1, §2

[5] = A549, Table 1, SRB, 48 h, read-out: GI50 Lung A549
[6] = HCT-116, Table 1, SRB, 48 h, read-out: GI50 Colorectal HCT116

What does the source list for CCCN(C(=O)c1cc(C(C)C)c(O)cc1O)c1cnc2ccccc2c1 [Compound 28d, 2,4-dihydroxy-5-isopropyl-N-propyl-N-(quinolin-3-yl)benzamide]?
GI50 (prostate PC3): 2.33 ± 0.04 µM; GI50 (lung A549; [5]): 1.16 ± 0.1 µM; GI50 (colorectal HCT116; [6]): 1.21 ± 0.13 µM

With CC(C)c1cc(C(=O)N(C)c2ccc3c(ccn3C)c2)c(O)cc1O [Compound 20g, 2,4-dihydroxy-5-isopropyl-N-methyl-N-(1-methyl-1H-indol-5-yl)benzamide] as the molecule, how does the “TGI, tumor growth inhibition” value [1] read?
Its value is 83.9%.

What about the “expression levels of the chaperone HSP70” value [2] of the same molecule?
The value was “increase”.

What about the “levels of HSP90 client proteins (EGFR, Akt, CDK-4)” value [2] of the same molecule?
The value was “substantial depletion”.

And the GI50 (liver Hep3B; 48 h, read-out: GI50 Liver Hep3B)?
Its GI50 is 0.57 ± 0.32 µM.

And the GI50 (liver Hep3B; read-out: Hep3B GI50)?
Its GI50 is 0.57 ± 0.32 µM.

What about the AUC(0-inf) ([3]; iv, 2 mg/kg) of the same molecule?
Its AUC(0-inf) is 0.288 ± 0.059 µg·h/mL.

What about the Vd ([3]; iv, 2 mg/kg) of the same molecule?
The Vd was 4.3 ± 1.3 L/kg.

And the clearance ([3]; iv, 2 mg/kg)?
Its clearance is 7.02 ± 1.38 L/h/kg.

And the half-life ([3]; iv, 2 mg/kg)?
Its half-life is 42 ± 6 min.

What about the AUC(0-inf) ([3]; po, 20 mg/kg) of the same molecule?
The AUC(0-inf) was 0.036 ± 0.005 µg·h/mL.

And the Cmax ([3]; po, 20 mg/kg)?
Its Cmax is 0.0128 ± 0.0083 µg/mL.

And the Tmax ([3]; po, 20 mg/kg)?
Its Tmax is 30 ± 24 min.

What about the bioavailability ([3]; po, 20 mg/kg) of the same molecule?
Its bioavailability is 1.3%.

And the half-life ([3]; po, 20 mg/kg)?
Its half-life is 132 ± 36 min.

And the “TI, Therapeutic Index, ratio of MTD to minimum efficacious dose (MED)” value ([4]; MTD/MED)?
The value was less than 2.5.

And the MTD ([4]; in vivo, po)?
The MTD was less than 250 mg/kg.

What about the “TI, Therapeutic Index measured by GI50(HUVEC)/GI50(A549)” value (HUVEC cells; GI50(HUVEC)/GI50(A549)) of the same molecule?
Its value is 2.9.

And the GI50 (HUVEC cells; 48 h, read-out: GI50 HUVEC)?
The GI50 was 0.82 ± 0.03 µM.

And the GI50 (HUVEC cells; read-out: HUVEC GI50)?
Its GI50 is 0.82 ± 0.03 µM.

And the IC50 (HSP90 α protein)?
Its IC50 is 0.106 ± 0.00758 µM.

What about the GI50 (breast MDA-MB-231; MDA-MB-231, 48 h, read-out: GI50 Breast MDA-MB-231) of the same molecule?
The GI50 was 0.1 ± 0.02 µM.

What about the GI50 (breast MDA-MB-231; MDA-MB-231, read-out: MDA-MB-231 GI50) of the same molecule?
The GI50 was 0.1 ± 0.02 µM.

And the GI50 (lung A549; A549, 48 h, read-out: GI50 Lung A549)?
The GI50 was 0.28 ± 0.02 µM.

And the GI50 (lung A549; A549, read-out: A549 GI50)?
Its GI50 is 0.28 ± 0.02 µM.

And the GI50 (colorectal HCT116; HCT-116, 48 h, read-out: GI50 Colorectal HCT116)?
Its GI50 is 0.7 ± 0.06 µM.

What about the GI50 (colorectal HCT116; HCT-116, read-out: HCT116 GI50) of the same molecule?
Its GI50 is 0.7 ± 0.06 µM.

For CC(C)c1cc(C(=O)Nc2cnc3c(ccn3C)c2)c(O)cc1O [Compound 24b, 2,4-dihydroxy-5-isopropyl-N-(1-methyl-1H-pyrrolo[2,3-b]pyridin-5-yl)benzamide], which GI50 (prostate PC3) is on record?
The GI50 was greater than 10 µM.

What about the GI50 (lung A549; [5]) of the same molecule?
Its GI50 is greater than 10 µM.

And the GI50 (colorectal HCT116; [6])?
The GI50 was greater than 10 µM.

Which results are given for CCN(C(=O)c1cc(C(C)C)c(O)cc1O)c1cc(C)nc2ccccc12 [Compound 32c, N-ethyl-2,4-dihydroxy-5-isopropyl-N-(2-methylquinolin-4-yl)benzamide]?
GI50 (prostate PC3): 6.3 ± 0.3 µM; GI50 (lung A549; [5]): 5.67 ± 0.06 µM; GI50 (colorectal HCT116; [6]): 5.99 ± 0.3 µM
